Laboratory results: patent US20220073536A1 (Rigel Pharmaceuticals, Inc., priority 2003, published 2022)
Where a name gives a salt, the structure may show the parent alone. Read-outs that look alike come from different tables or passages of the source. One block for each molecule: values may come before it.

System: cultured human mast cells (CHMC)
Assay: CHMC low cell density IgE activation: tryptase assay
Type: cell-based
Settings: IgE activation
Description: Inhibition of degranulation was measured at both low and high cell density by quantifying the release of the granule specific factors tryptase, histamine and hexosaminidase. Inhibition of release and/or synthesis of lipid mediators was assessed by measuring the release of leukotriene LTC4 and inhibition of release and/or synthesis of cytokines was monitored by quantifying TNF-α, IL-6 and IL-13. Tryptase and hexosaminidase were quantified using fluorogenic substrates as described in their respective examples. […] The protocols of the various assays are provided below.
Pellet CHMC cells (980 rpm, 10 min) and resuspend in pre-warmed MT. Add 65 ul of cells to each 96-well plate. Depending on the degranulation activity for each particular CHMC donor, load 1000-1500 cells/well. Mix four times followed by a 1 hr incubation at 37° C. […] Stimulate cells by adding 25 ul of 6× anti-IgE solution to the appropriate plates. Add 25 ul MT to un-stimulated control wells. Mix twice following addition of the anti-IgE. Incubate at 37° C. for 30 minutes. […] Spin plates at 1000 rpm for 10 min to pellet cells. Transfer 25 ul of supernatant to a 96-well black bottom plate and add 100 ul of freshly diluted tryptase substrate solution to each well. Incubate plates at room temperature for 30 min.

[1] = low cell density CHMC, tryptase, 3 pt, read-out: LD Tryptase, CHMC, IgE, 3 pt
[2] = Homo sapiens, Mast cell, low cell density CHMC, tryptase, 3 pt, read-out: LD Tryptase, CHMC, IgE, 3 pt
[3] = Homo sapiens, Mast cell, low cell density CHMC, tryptase, 8 pt, read-out: LD Tryptase, CHMC, IgE, 8 pt
[4] = low cell density CHMC, tryptase, 8 pt, read-out: LD Tryptase, CHMC, IgE, 8 pt
[5] = Homo sapiens, Mast cell, low cell density, 3 pt, read-out: LD Tryptase, CHMC, IgE, 3 pt

IC50 [1]: < 10 µM
SMILES: CNC(=O)n1ccc2ccc(Nc3ncc(F)c(Nc4ccc5c(c4)NC(=O)C(C)(C)O5)n3)cc21 [Compound 347, N4-(2,2-Dimethyl-3-oxo-4H-benz[1,4]oxazin-6-yl)-N2-[1-(N-methylaminocarbony)lindol-6-yl)-5-fluoro-2,4-pyrimidinediamine]

IC50 [2]: > 10 µM
SMILES: CC1(C)Oc2ccc(Nc3nc(Nc4ccc5ccn(C(N)=O)c5c4)ncc3F)cc2NC1=O [Compound 348]

IC50 [2]: < 10 µM
SMILES: COc1cc(Nc2nc(Nc3cc(C)c(Cl)c(C)c3)ncc2F)cc(OC)c1 [Compound 349]

IC50 [3]: < 10 µM
SMILES: COc1cc(Nc2nc(Nc3ccc4c(c3)OCCO4)ncc2F)cc(OC)c1 [Compound 351, N4-(3,5-Dimethoxyphenyl)-N2-(3,4-ethylenedioxyphenyl)-5-fluoro-2,4-pyrimidinediamine]

IC50 [2]: < 10 µM
SMILES: COc1cc(Nc2nc(Nc3cc(Cl)cc(Cl)c3)ncc2F)cc(OC)c1 [Compound 352]

IC50 [2]: < 10 µM
SMILES: COc1cc(Nc2nc(Nc3cc(C)cc(C(F)(F)F)c3)ncc2F)cc(OC)c1 [Compound 353]

IC50 [3]: < 10 µM
SMILES: Fc1cnc(Nc2cc(Cl)cc(Cl)c2)nc1Nc1ccc2c(c1)OCCO2 [Compound 354]

IC50 [2]: < 10 µM
SMILES: COc1cc(Nc2nc(Nc3cc(OC)cc(C(F)(F)F)c3)ncc2F)cc(OC)c1 [Compound 355]

IC50 [3]: < 10 µM
SMILES: COc1cc(Nc2ncc(F)c(Nc3ccc4c(c3)OCCO4)n2)cc(C(F)(F)F)c1 [Compound 356, N4-(3,4-Ethylenedioxyphenyl)-5-fluoro-N2-(3-methoxy-5-trifluoromethylphenyl)-2,4-pyrimidinediamine]

IC50 [1]: < 10 µM | IC50 [4]: < 10 µM
SMILES: COc1cc(Nc2ncc(F)c(Nc3ccc4c(c3)OC(F)(F)C(F)(F)O4)n2)cc(OC)c1 [Compound 357]

IC50 [1]: > 10 µM
SMILES: Cc1cc(Nc2ncc(F)c(Nc3ccc4c(c3)OC(F)(F)C(F)(F)O4)n2)cc(C)c1Cl [Compound 358]

IC50 [4]: < 10 µM
SMILES: OCc1cc(CO)cc(Nc2ncc(F)c(Nc3ccc4c(c3)OC(F)(F)C(F)(F)O4)n2)c1 [Compound 359]

IC50 [1]: > 10 µM
SMILES: Fc1cnc(Nc2cc(Cl)cc(Cl)c2)nc1Nc1ccc2c(c1)OC(F)(F)C(F)(F)O2 [Compound 360]

IC50 [1]: < 10 µM
SMILES: COc1cc(Nc2ncc(F)c(Nc3ccc4c(c3)OC(F)(F)C(F)(F)O4)n2)cc(C(F)(F)F)c1 [Compound 361]

IC50 [1]: < 10 µM | IC50 [4]: > 10 µM
SMILES: Cc1cc(C)cc(Nc2ncc(F)c(Nc3ccc4c(c3)OC(F)(F)C(F)(F)O4)n2)c1 [Compound 362, N2-(3,5-Dimethyphenyl)-5-fluoro-N4-[3,4-(tetrafluoroethylenedioxy)phenyl]-2,4-pyrimidinediamine]

IC50 [1]: < 10 µM
SMILES: Cc1cc(Nc2ncc(F)c(Nc3ccc4c(c3)OC(F)(F)C(F)(F)O4)n2)cc(C(F)(F)F)c1 [Compound 366, 5-Fluoro-N2-(3-methyl-5-trifluoromethyl)-N4-[3,4-(tetrafluoroethylenedioxy)phenyl]-2,4-pyrimidinediamine]

IC50 [1]: < 10 µM | IC50 [4]: < 10 µM
SMILES: Fc1cnc(Nc2ccc3c(c2)OCCO3)nc1Nc1ccc2c(c1)OC(F)(F)C(F)(F)O2 [Compound 367]

IC50 [3]: < 10 µM
SMILES: COc1cc(Cl)cc(Nc2ncc(F)c(Nc3ccc4c(c3)NC(=O)C(C)(C)O4)n2)c1 [Compound 369, N2-(3-Chloro-5-methoxyphenyl)-N4-(2,2-dimethyl-3-oxo-4H-benz[1,4]oxazin-6-yl)-5-fluoro-2,4-pyrimidinediamine]

IC50 [3]: < 10 µM
SMILES: COc1cc(Cl)cc(Nc2ncc(F)c(Nc3ccc4c(c3)OCCO4)n2)c1 [Compound 370]

IC50 [3]: < 10 µM
SMILES: CNC(=O)c1cc2cccc(Nc3ncc(F)c(Nc4ccc5c(c4)OCO5)n3)c2[nH]1 [Compound 371, 5-Fluoro-N4-(3,4-methylenedioxyphenyl)-N2-[2-(N-methylamino)carbonylindol-7-yl]-2,4-pyrimidinediamine]

IC50 [3]: < 10 µM
SMILES: COc1cc(Nc2ncc(F)c(Nc3ccc4c(c3)OCO4)n2)cc(OC)c1 [Compound 372, N2-(3,5-Dimethoxyphenyl)-5-fluoro-N4-(3,4-methylenedioxyphenyl)-2,4-pyrimidinediamine]

IC50 [2]: < 10 µM
SMILES: COc1cc(Nc2ncc(F)c(Nc3ccc4c(c3)OCO4)n2)cc(C(F)(F)F)c1 [Compound 373, 5-Fluoro-N4-(3,4-methylenedioxyphenyl)-N2-(3-methoxy-5-trifluoromethylphenyl)-2,4-pyrimidinediamine]

IC50 [2]: > 10 µM
SMILES: Cc1cc(Nc2ncc(F)c(Nc3ccc4c(c3)OCO4)n2)cc(C(F)(F)F)c1 [Compound 374]

IC50 [2]: < 10 µM
SMILES: Fc1cnc(Nc2cc(Cl)cc(Cl)c2)nc1Nc1ccc2c(c1)OCO2 [Compound 375]

IC50 [3]: < 10 µM
SMILES: Cc1cc(C)cc(Nc2ncc(F)c(Nc3ccc4c(c3)OCO4)n2)c1 [Compound 376]

IC50 [2]: < 10 µM
SMILES: COc1ccc(Nc2nc(Nc3cc(OC)c(Cl)cc3OC)ncc2F)cc1Cl [Compound 377]

IC50 [3]: < 10 µM
SMILES: COc1ccc(Nc2ncc(F)c(Nc3ccc4c(c3)NC(=O)C(C)(C)O4)n2)cc1Cl [Compound 378, N2-(3-Chloro-4-methoxyphenyl)-N4-(2,2-dimethyl-3-oxo-4H-benz[1,4]oxazin-6-yl)-5-fluoro-2,4-pyrimidinediamine p-Toluene Sulfonic Acid Salt]

IC50 [2]: < 10 µM
SMILES: COc1cc(Nc2ncc(F)c(Nc3ccc4c(c3)OCCO4)n2)c(OC)cc1Cl [Compound 379]

IC50 [2]: < 10 µM
SMILES: COc1cc(Nc2nc(Nc3cc(OC)c(Cl)cc3OC)ncc2F)cc(OC)c1 [Compound 380]

IC50 [2]: < 10 µM | IC50 [3]: < 10 µM
SMILES: COC(=O)c1cc2cc(Nc3ncc(F)c(Nc4cc(OC)cc(OC)c4)n3)ccc2o1 [Compound 381]

IC50 [2]: < 10 µM
SMILES: COc1cc(Nc2nc(Nc3cccc4cc(C(=O)O)[nH]c34)ncc2F)cc(OC)c1 [Compound 383]

IC50 [4]: < 10 µM
SMILES: COC(=O)C(C)(C)Oc1ccc(Nc2nc(Nc3cc(C)cc(C)c3)ncc2F)cc1Cl [Compound 402, N4-[3-Chloro-4-(methoxycarbonyl-1,1-dimethylmethyleneoxy)phenyl]-N2-(3,5-dimethylphenyl)-5-fluoro-2,4-pyrimidinediamine]

IC50 [4]: < 10 µM
SMILES: COC(=O)C(C)(C)Oc1ccc(Nc2nc(Nc3cc(C)cc(C)c3)ncc2F)cc1 [Compound 403, N2-(3,5-Dimethylphenyl)-N4-[4-(methoxycarbonyl-1,1-dimethylmethyleneoxy)phenyl]-5-fluoro-2,4-pyrimidinediamine]

IC50 [4]: < 10 µM
SMILES: CCOC(=O)C(C)(C)Oc1ccc(Nc2nc(Cl)ncc2F)cc1Cl [Compound 407, 2-Chloro-N4-[3-chloro-4-(ethoxycarbonyl-1,1-dimethylmethyleneoxy)phenyl]-5-fluoro-4-pyrimidineamine]

IC50 [4]: < 10 µM
SMILES: CCOC(=O)C(C)(C)Oc1ccc(Nc2nc(Nc3cc(OC)cc(OC)c3)ncc2F)cc1Cl [Compound 408, N4-[3-Chloro-4-(ethoxycarbonyl-1,1-dimethylmethyleneoxy)phenyl]-N2-(3,5-dimethoxyphenyl)-5-fluoro-2,4-pyrimidinediamine]

IC50 (low cell density, 8 pt, read-out: LD Tryptase, CHMC, IgE, 8 pt): < 10 µM
SMILES: CNC(=O)COc1cccc(Nc2ncc(F)c(Nc3ccc(C(=O)NC)c(Cl)c3)n2)c1 [Compound 483, N4-[3-Chloro-4-(N-methylamino)carbonylphenyl]-5-fluoro-N2-[3-(N-methylamino)carbonylmethyleneoxyphenyl]-2,4-pyrimidinediamine]

IC50 [5]: > 10 µM
SMILES: CNC(=O)c1ccc(Nc2nc(Nc3ccc(Cl)c(C(=O)NC)c3)ncc2F)cc1Cl [Compound 484]

IC50 [5]: < 10 µM | IC50 (Homo sapiens, Mast cell, low cell density, 8 pt, read-out: LD Tryptase, CHMC, IgE, 8 pt): < 10 µM
SMILES: CNC(=O)c1ccc(Nc2nc(Nc3ccc4cc[nH]c4c3)ncc2F)cc1Cl [Compound 485, N4-[3-Chloro-4-(N-methylamino)carbonylphenyl]-5-fluoro-N2-(indol-6-yl)-2,4-pyrimidinediamine]

IC50 [5]: < 10 µM
SMILES: Oc1cccc(Nc2nc(Nc3cccc(-c4ncco4)c3)ncc2F)c1 [Compound 511, 5-Fluoro-N4-(3-hydroxyphenyl)-N2-[3-(oxazol-2-yl)phenyl]-2,4-pyrimidinediamine]

IC50 [5]: < 10 µM
SMILES: Oc1cccc(Nc2nc(Nc3cccc(-c4ncon4)c3)ncc2F)c1 [Compound 522]

IC50 [5]: > 10 µM
SMILES: COc1cc(N(C)c2nc(Cl)ncc2F)cc(OC)c1OC [Compound 523]

IC50 [5]: < 10 µM
SMILES: Cc1cc(Nc2nc(Nc3cccc(-c4ncco4)c3)ncc2F)no1 [Compound 524, 5-Fluoro-N4-(5-methylisoxazol-3-yl)-N2-[3-(oxazol-2-yl)phenyl]-2,4-pyrimidinediamine]

IC50 [5]: < 10 µM
SMILES: Cc1onc(-c2ccccc2)c1Nc1nc(Nc2cccc(-c3ncco3)c2)ncc1F [Compound 525]

IC50 [5]: < 10 µM
SMILES: Cn1nc(-c2ccccc2)cc1Nc1nc(Nc2cccc(-c3ncco3)c2)ncc1F [Compound 526]

IC50 [5]: < 10 µM
SMILES: COC(=O)c1cc(Nc2ncc(F)c(Nc3cc(C(=O)OC)cc(-c4ncco4)c3)n2)cc(-c2ncco2)c1 [Compound 527]

IC50 [5]: > 10 µM
SMILES: Cc1noc(C)c1Nc1ncc(F)c(Nc2c(C)noc2C)n1 [Compound 528]

IC50 [5]: < 10 µM
SMILES: Fc1cnc(Nc2cc(-c3ncco3)cc(C(F)(F)F)c2)nc1Nc1cc(-c2ncco2)cc(C(F)(F)F)c1 [Compound 529]
